Results as given in patent US5210193A, “Piperazine derivatives” (American Cyanamid Company, priority 1990, dated 1993).
Converted amounts (≈) assume the structure as drawn.

Legend:
Test in all cases: in vitro antibacterial MIC, agar plate dilution
Assay type in all cases: cell-based
[1] = tested on: Klebsiella pneumoniae MOR 84-4; details: Klebsiella pneumoniae, MOR844, 18 h, 35° C., read-out: MIC
Procedure, shortened: (§1)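 Agar plate dilution on Mueller-Hinton agar, inoculum about 10^4 CFU per spot applied with a Steers replicator. MIC (mcg/ml) is the lowest compound concentration preventing visible growth after 18 h at 35 °C.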

[2] = tested on: Serratia marcescens K 84-18; details: Serratia marcescens, K8418, 18 h, 35° C., read-out: MIC
Procedure, shortened: as §1

[3] = tested on: Enterobacter aerogenes VGH 84-36; details: Klebsiella aerogenes, VGH8436, 18 hours, 35° C., read-out: MIC
Procedure, shortened: as §1

[4] = tested on: Pseudomonas aeruginosa LL-1244; details: Pseudomonas aeruginosa, LL1244, 18 h, 35° C., read-out: MIC
Procedure, shortened: as §1

[5] = tested on: Escherichia coli NAR 311; details: NAR311, 18 hours, 35° C., read-out: MIC
Procedure, shortened: as §1

[6] = tested on: Morganella morganii VGH 84-11; details: VGH8411, 18 hours, 35° C., read-out: MIC
Procedure, shortened: as §1

[7] = tested on: Enterobacter cloacae K 84-10; details: Enterobacter cloacae, K8410, 18 h, 35° C., read-out: MIC
Procedure, shortened: as §1

[8] = tested on: Klebsiella oxytoca MOR 84-28; details: MOR8428, 18 hours, 35° C.
Procedure, shortened: as §1

[9] = tested on: Enterobacter cloacae VGH 84-37; details: Enterobacter cloacae, VGH8437, 18 h, 35° C., read-out: MIC
Procedure, shortened: as §1

[10] = tested on: Staphylococcus aureus ATCC 25913; details: ATCC25913, 18 hours, 35° C.
Procedure, shortened: as §1

[11] = tested on: Staphylococcus aureus ATTC 29213; details: Staphylococcus aureus, ATTC29213, 18 h, 35° C., read-out: MIC
Procedure, shortened: as §1

[12] = tested on: Staphylococcus aureus CMC 83-127; details: Staphylococcus aureus, CMC83127, 18 h, 35° C., read-out: MIC
Procedure, shortened: as §1

[13] = tested on: Proteus rettgeri CMC 84-41; details: Providencia rettgeri, CMC8441, 18 h, 35° C., read-out: MIC
Procedure, shortened: as §1

[14] = tested on: Klebsiella pneumoniae AD; details: Klebsiella pneumoniae, 18 h, 35° C., read-out: MIC
Procedure, shortened: as §1

[15] = tested on: Staphylococcus aureus CMC 83-128; details: CMC83128, 18 hours, 35° C., read-out: MIC
Procedure, shortened: as §1

[16] = tested on: Escherichia coli PRNT 311; details: PRNT311, 18 hours, 35° C., read-out: MIC
Procedure, shortened: as §1

[17] = tested on: Serratia marcescens F 0-35; details: Serratia marcescens, F035, 18 h, 35° C., read-out: MIC
Procedure, shortened: as §1

[18] = tested on: Staphylococcus aureus VGH 84-45; details: Staphylococcus aureus, VGH8445, 18 h, 35° C., read-out: MIC
Procedure, shortened: as §1

[19] = tested on: Staphylococcus epidermidis VGH 84-40; details: VGH8440, 18 hours, 35° C., read-out: MIC
Procedure, shortened: as §1

[20] = tested on: Streptococcus faecalis VGH 84-65; details: Enterococcus faecalis, VGH8465, 18 h, 35° C., read-out: MIC
Procedure, shortened: as §1

[21] = tested on: Acinetobacter calcoaceticus MOR 84-43; details: MOR8443, 18 hours, 35° C., read-out: MIC
Procedure, shortened: as §1

[22] = tested on: Morganella morganii CMC 84-37; details: Morganella morganii, CMC8437, 18 h, 35° C., read-out: MIC
Procedure, shortened: as §1

[23] = tested on: Escherichia coli CMC 84-16; details: Escherichia coli, CMC8416, 18 h, 35° C., read-out: MIC
Procedure, shortened: as §1

[24] = tested on: Pseudomonas aeruginosa VGH 84-4; details: Pseudomonas aeruginosa, VGH844, 18 h, 35° C., read-out: MIC
Procedure, shortened: as §1

[25] = tested on: Escherichia coli CMC 84-11; details: Escherichia coli, CMC8411, 18 h, 35° C., read-out: MIC
Procedure, shortened: as §1

[26] = tested on: Staphylococcus aureus Smith; details: Staphylococcus aureus, 18 h, 35° C., read-out: MIC
Procedure, shortened: as §1

[27] = tested on: Staphylococcus epidermidis IO 83-58; details: IO8358, 18 hours, 35° C., read-out: MIC
Procedure, shortened: as §1

[28] = tested on: Staphylococcus epidermidis CMC 83-135; details: CMC83135, 18 hours, 35° C., read-out: MIC
Procedure, shortened: as §1

[29] = tested on: Streptococcus faecalis ATTC 29212; details: Enterococcus faecalis, ATTC29212, 18 hours, 35° C., read-out: MIC
Procedure, shortened: as §1

[30] = tested on: Staphylococcus aureus VGH 84-46; details: Staphylococcus aureus, VGH8446, 18 h, 35° C., read-out: MIC
Procedure, shortened: as §1

[31] = tested on: Staphylococcus Spp saprophiticus VGH 84-50; details: 18 hours, 35° C., read-out: MIC
Procedure, shortened: as §1

[32] = tested on: Escherichia coli ATCC 25922; details: Escherichia coli, ATCC25922, 18 h, 35° C., read-out: MIC
Procedure, shortened: as §1

Compound	MIC [1] [µg/mL]	MIC [2] [µg/mL]	MIC [3] [µg/mL]	MIC [4] [µg/mL]	MIC [5] [µg/mL]	MIC [6] [µg/mL]	MIC [7] [µg/mL]	MIC [8] [µg/mL]	MIC [9] [µg/mL]	MIC [11] [µg/mL]	MIC [12] [µg/mL]	MIC [13] [µg/mL]	MIC [14] [µg/mL]	MIC [15] [µg/mL]	MIC [16] [µg/mL]	MIC [17] [µg/mL]	MIC [18] [µg/mL]	MIC [19] [µg/mL]	MIC [20] [µg/mL]	MIC [21] [µg/mL]	further results
CCn1cc(C(=O)O)c(=O)c2cc(F)c(N3CCNC(c4ccco4)C3)cc21 (stereo not shown) [Example 28, 1-Ethyl-6-fluoro-7-[3-(2-furanyl)-1-piperazinyl]-1,4-dihydro-4-oxo-3-quinolinecarboxylic acid]	0.25 (≈ 0.649 µM)	1 (≈ 2.59 µM)	0.5 (≈ 1.3 µM)	32 (≈ 83 µM)	4 (≈ 10.4 µM)	0.25 (≈ 0.649 µM)	0.25 (≈ 0.649 µM)	0.5 (≈ 1.3 µM)	≤ 0.12	0.25 (≈ 0.649 µM)	≤ 0.06	0.25 (≈ 0.649 µM)	≤ 0.12	≤ 0.12	0.5 (≈ 1.3 µM)	1 (≈ 2.59 µM)	≤ 0.06	≤ 0.12	2 (≈ 5.19 µM)	2 (≈ 5.19 µM)	MIC [10]: ≤ 0.12 µg/mL; MIC [22]: 0.25 µg/mL (≈ 0.649 µM); MIC [23]: ≤ 0.12 µg/mL; MIC [24]: 4 µg/mL (≈ 10.4 µM); MIC [25]: ≤ 0.12 µg/mL; MIC [26]: ≤ 0.12 µg/mL; MIC [27]: 0.25 µg/mL (≈ 0.649 µM); MIC [28]: ≤ 0.12 µg/mL; MIC [29]: 2 µg/mL (≈ 5.19 µM); MIC [30]: ≤ 0.12 µg/mL; MIC [31]: 1 µg/mL (≈ 2.59 µM); MIC [32]: ≤ 0.12 µg/mL
CCn1cc(C(=O)O)c(=O)c2cc(F)c(N3CCNC(c4ccc(C)s4)C3)cc21 (stereo not shown) [Example 37, 1-Ethyl-6-fluoro-1,4-dihydro-7-[3-(5-methyl-2-thienyl)-1-piperazinyl]-4-oxo-3-quinolinecarboxylic acid]	2 (≈ 4.81 µM)	2 (≈ 4.81 µM)	1 (≈ 2.41 µM)	64 (≈ 154 µM)	16 (≈ 38.5 µM)	1 (≈ 2.41 µM)	1 (≈ 2.41 µM)	1 (≈ 2.41 µM)	1 (≈ 2.41 µM)	0.5 (≈ 1.2 µM)	0.12 (≈ 0.289 µM)	1 (≈ 2.41 µM)	2 (≈ 4.81 µM)	0.25 (≈ 0.602 µM)	2 (≈ 4.81 µM)	2 (≈ 4.81 µM)	0.12 (≈ 0.289 µM)	0.25 (≈ 0.602 µM)	4 (≈ 9.63 µM)	8 (≈ 19.3 µM)	MIC [22]: 0.5 µg/mL (≈ 1.2 µM); MIC [23]: 0.5 µg/mL (≈ 1.2 µM); MIC [24]: 16 µg/mL (≈ 38.5 µM); MIC [25]: 1 µg/mL (≈ 2.41 µM); MIC [26]: 0.5 µg/mL (≈ 1.2 µM); MIC [27]: 0.5 µg/mL (≈ 1.2 µM); MIC [28]: 0.5 µg/mL (≈ 1.2 µM); MIC [29]: 4 µg/mL (≈ 9.63 µM); MIC [30]: 0.5 µg/mL (≈ 1.2 µM); MIC [31]: 2 µg/mL (≈ 4.81 µM); MIC [32]: 1 µg/mL (≈ 2.41 µM)
CCn1cc(C(=O)O)c(=O)c2cc(F)c(N3CCNC(CNC)C3)cc21.Cl.Cl (stereo not shown) [Example 53, 1-Ethyl-6-fluoro-1,4-dihydro-7-[3-[(methylamino)methyl]-1-piperazinyl]-4-oxo-3-quinolinecarboxylic acid, dihydrochloride]	32	128	16	> 128	> 128	32	8	> 128	32	16	1	32	64	2	16	64	16	4	32	> 128	MIC [22]: 32 µg/mL; MIC [23]: 4 µg/mL; MIC [24]: > 128 µg/mL; MIC [25]: 8 µg/mL; MIC [26]: 1 µg/mL; MIC [27]: 4 µg/mL; MIC [28]: 2 µg/mL; MIC [29]: 32 µg/mL; MIC [30]: 8 µg/mL; MIC [31]: 4 µg/mL; MIC [32]: 16 µg/mL
CCn1cc(C(=O)O)c(=O)c2cc(F)c(N3CCN(C)C(c4sc5ccccc5c4C)C3)cc21 (stereo not shown) [Example 54, 1-Ethyl-6-fluoro-1,4-dihydro-7-[4-methyl-3-(3-methyl-benzo[b]thien-2-yl)-1-oiperazinyl]-4-oxo-3-quinolinecarboxylic acid]	> 256	> 256	> 256	> 256	> 256	> 256	> 256	> 256	> 256	256 (≈ 534 µM)	32 (≈ 66.7 µM)	> 256	> 256	64 (≈ 133 µM)	> 256	> 256	256 (≈ 534 µM)	> 256	> 256	> 256	MIC [22]: > 256 µg/mL; MIC [23]: > 256 µg/mL; MIC [24]: > 256 µg/mL; MIC [25]: > 256 µg/mL; MIC [26]: 64 µg/mL (≈ 133 µM); MIC [27]: > 256 µg/mL; MIC [28]: > 256 µg/mL; MIC [29]: > 256 µg/mL; MIC [30]: > 256 µg/mL; MIC [31]: > 256 µg/mL; MIC [32]: > 256 µg/mL
CCn1cc(C(=O)O)c(=O)c2cc(F)c(N3CCN(C)C(c4cc5cc(Cl)ccc5o4)C3)cc21 (stereo not shown) [Example 55, 7-[3-(5-Chloro-2-benzofuranyl)-4-methyl-1-piperazinyl]-1-ethyl-6-fluoro-1,4-dihydro-4-oxo-3-quinolinecarboxylic acid]	> 256	> 256	> 256	> 256	> 256	> 256	> 256	> 256	> 256	64 (≈ 132 µM)	8 (≈ 16.5 µM)	> 256	> 256	16 (≈ 33.1 µM)	> 256	> 256	16 (≈ 33.1 µM)	32 (≈ 66.1 µM)	> 256	> 256	MIC [22]: > 256 µg/mL; MIC [23]: > 256 µg/mL; MIC [24]: > 256 µg/mL; MIC [25]: > 256 µg/mL; MIC [26]: 16 µg/mL (≈ 33.1 µM); MIC [27]: 128 µg/mL (≈ 265 µM); MIC [28]: 64 µg/mL (≈ 132 µM); MIC [29]: > 256 µg/mL; MIC [30]: 32 µg/mL (≈ 66.1 µM); MIC [31]: > 256 µg/mL; MIC [32]: > 256 µg/mL
CCn1cc(C(=O)O)c(=O)c2c(F)c(F)c(N3CCN(C)CC3)c(F)c21 [Example 85, 1-Ethyl-5,6,8-trifluoro-1,4-dihydro-7-(4-methyl-1-piperazinyl) -4-oxo-3-quinolinecarboxylic acid]	0.5 (≈ 1.35 µM)	0.5 (≈ 1.35 µM)	0.5 (≈ 1.35 µM)	16 (≈ 43.3 µM)	4 (≈ 10.8 µM)	0.12 (≈ 0.325 µM)	0.12 (≈ 0.325 µM)	1 (≈ 2.71 µM)	0.12 (≈ 0.325 µM)	2 (≈ 5.42 µM)	0.5 (≈ 1.35 µM)	0.5 (≈ 1.35 µM)	0.25 (≈ 0.677 µM)	2 (≈ 5.42 µM)	0.12 (≈ 0.325 µM)	0.5 (≈ 1.35 µM)	1 (≈ 2.71 µM)	1 (≈ 2.71 µM)	16 (≈ 43.3 µM)	1 (≈ 2.71 µM)	MIC [22]: 0.12 µg/mL (≈ 0.325 µM); MIC [23]: 0.06 µg/mL (≈ 0.162 µM); MIC [24]: 4 µg/mL (≈ 10.8 µM); MIC [25]: 0.12 µg/mL (≈ 0.325 µM); MIC [26]: 1 µg/mL (≈ 2.71 µM); MIC [27]: 1 µg/mL (≈ 2.71 µM); MIC [28]: 2 µg/mL (≈ 5.42 µM); MIC [29]: 8 µg/mL (≈ 21.7 µM); MIC [30]: 1 µg/mL (≈ 2.71 µM); MIC [31]: 8 µg/mL (≈ 21.7 µM); MIC [32]: 0.12 µg/mL (≈ 0.325 µM)
